Results taken from ChEMBL document CHEMBL5260834, “Benzomorphan skeleton, a versatile scaffold for different targets: A comprehensive review” (Eur J Med Chem, 2018).

Key:
[1] = molecular target: T1, Sigma non-opioid intracellular receptor 1 (Cavia porcellus, UniProt Q60492); experiment: Displacement of [3H]-(+)-pentazocine from sigma1 receptor in guinea pig brain membrane assessed as inhibition constant measured after 120 mins by scintillation counting method; type: cell membranes
[2] = molecular target: T2, Sigma intracellular receptor 2 (Homo sapiens, UniProt Q5BJF2); experiment: Displacement of [3H]DTG from sigma 2 receptor (unknown origin) assessed as inhibition constant incubated for 120 mins in presence of (+)-SKF10047 by radioligand binding assay
[3] = molecular target: T1, Sigma non-opioid intracellular receptor 1; experiment: Displacement of [3H]-(+)-pentazocine from sigma1 receptor in guinea pig brain membrane assessed as inhibition constant measured for 150 mins in presence of haloperidol; type: cell membranes
Mu-type opioid receptor [4] = molecular target: Mu-type opioid receptor (Rattus norvegicus, UniProt P33535); experiment: Displacement of [ 3H]-naloxone from rat brain membrane mu opioid receptor assessed as inhibition constant by radioligand binding assay; type: cell membranes
[5] = molecular target: T3, Sigma non-opioid intracellular receptor 1 (Homo sapiens, UniProt Q99720); experiment: Agonist activity at sigma1 receptor (unknown origin); details: filed as agonist
[6] = molecular target: T3, Sigma non-opioid intracellular receptor 1; experiment: Inhibition of sigma 1 receptor (unknown origin)
Mu-type opioid receptor [7] = molecular target: T4, Mu-type opioid receptor (Homo sapiens, UniProt P35372); experiment: Displacement of [3H]-DAMGO from human MOR receptor assessed as inhibition constant by cheng-prusoff equation assay
[8] = molecular target: T3, Sigma non-opioid intracellular receptor 1; experiment: Displacement of [3H]-(+)-pentazocine from sigma1 receptor (unknown origin) assessed as inhibition constant
Mu-type opioid receptor [9] = molecular target: T4, Mu-type opioid receptor; experiment: Displacement of [3H]-Diprenorphine from MOR receptor (unknown origin) assessed as inhibition constant
[10] = molecular target: Delta-type opioid receptor (Homo sapiens, UniProt P41143); experiment: Displacement of [3H]-Diprenorphine from DOR receptor (unknown origin) assessed as inhibition constant
[11] = molecular target: T5, Kappa-type opioid receptor (Homo sapiens, UniProt P41145); experiment: Displacement of [3H]-U69593 from KOR receptor (unknown origin) assessed as inhibition constant
[12] = molecular target: T1, Sigma non-opioid intracellular receptor 1; experiment: Displacement of [3H]-(+)-pentazocine from sigma1 receptor in guinea pig brain membrane assessed as inhibition constant measured for 150 mins; type: cell membranes
[13] = molecular target: T2, Sigma intracellular receptor 2; experiment: Displacement of [3H]DTG from sigma 2 receptor (unknown origin) assessed as inhibition constant in presence of haloperidol measured for 120 mins by scintillation counting analysis
[14] = Ratio of Ki for displacement of [3H]DTG from sigma 2 receptor (unknown origin) assessed as inhibition constant in presence of haloperidol to Ki for displacement of [3H]-(+)-pentazocine from sigma1 receptor in guinea pig brain membrane assessed as inhibition constant; type: cell membranes
[15] = molecular target: T2, Sigma intracellular receptor 2
Description: Inhibition of sigma 2 receptor (unknown origin)

[16] = molecular target: T6, Sigma intracellular receptor 2 (Rattus norvegicus, UniProt Q5U3Y7); experiment: Displacement of [3H]DTG from sigma 2 receptor in rat liver membranes assessed as inhibition constant presence of haloperidol by scintillation counting analysis; type: cell membranes, Membrane
T6 sequence (Q5U3Y7 whole entry): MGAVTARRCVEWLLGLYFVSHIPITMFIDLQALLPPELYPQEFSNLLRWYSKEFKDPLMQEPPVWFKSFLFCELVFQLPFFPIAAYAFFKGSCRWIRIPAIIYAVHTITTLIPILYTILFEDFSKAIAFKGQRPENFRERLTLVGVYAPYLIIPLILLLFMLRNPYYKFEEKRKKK

[17] = Ratio of Ki for displacement of [3H]DTG from sigma 2 receptor in rat liver membranes assessed as inhibition constant presence of haloperidol by scintillation counting analysis to Ki for displacement of [3H]-(+)-pentazocine from sigma 1 receptor in guinea pig brain membrane assessed as inhibition constant in presence of haloperidol; type: cell membranes
[18] = molecular target: T5, Kappa-type opioid receptor; experiment: Displacement of [3H]-diprenorphine from KOR receptor (unknown origin) assessed as inhibition constant in presence of D-Ala-N-MePhe-Gly-ol-enkephalin and D-Ala-DLeu-enkephalin
[19] = molecular target: T2, Sigma intracellular receptor 2; experiment: Displacement of [3H]DTG from sigma 2 receptor (unknown origin) assessed as inhibition constant in presence of (+)-SKF10047 by radioligand binding assay
[20] = molecular target: Glutamate [NMDA] receptor; experiment: Antagonist activity at NMDA receptor (unknown origin) assessed as inhibition constant; type: protein-complex assay, Homo sapiens
[21] = Toxicity in mouse assessed as induction of lethality; details: in vivo
[22] = Half life in mouse; type: ADME, organism-based; details: in vivo
[23] = molecular target: T1, Sigma non-opioid intracellular receptor 1; experiment: Displacement of [3H]-(+)-pentazocine from sigma1 receptor in guinea pig brain membrane assessed as inhibition constant; type: cell membranes
[24] = molecular target: T6, Sigma intracellular receptor 2; experiment: Displacement of [3H]DTG from sigma 2 receptor in rat liver membranes assessed as inhibition constant presence of dextrallorphan; type: cell membranes, Membrane
[25] = Ratio of Ki for displacement of [3H]-(+)-pentazocine from sigma1 receptor in guinea pig brain membrane assessed as inhibition constant to Ki for displacement of [3H]-(+)-pentazocine from sigma1 receptor in guinea pig brain membrane assessed as inhibition constant; type: cell membranes; parameters: reference not given here
[26] = Displacement of 3[H]BTX from rat cerebral cortex sodium channel assessed as inhibition constant; type: tissue-based
[27] = molecular target: Glutathione hydrolase 1 proenzyme (Homo sapiens, UniProt P19440); experiment: Inhibition of human GGT1
Mus musculus [28] = experiment: Anticonvulsant activity in mouse assessed as protection against maximal electroshock seizures […] by maximum electroshock seizure test; type: functional
Mus musculus [29] = experiment: Anticonvulsant activity in mouse assessed as protection against maximal electroshock seizures at 5 mg/kg, sc by maximum electroshock seizure test; type: functional; details: read-out: ID50 (the source's name)
[30] = Ratio of Ki for displacement of[3H]-DAMGO from human MOR receptor to Ki for displacement of [3H]-(+)-pentazocine from sigma1 receptor in guinea pig brain membrane; type: cell membranes
[31] = molecular target: T2, Sigma intracellular receptor 2; experiment: Displacement of [3H]DTG from sigma 2 receptor (unknown origin) assessed as inhibition constant
[32] = Ratio of Ki for displacement of [3H]DTG from sigma 2 receptor (unknown origin) to Ki for displacement of [3H]-(+)-pentazocine from sigma1 receptor in guinea pig brain membrane; type: cell membranes

T5 sequence (P41145 whole entry): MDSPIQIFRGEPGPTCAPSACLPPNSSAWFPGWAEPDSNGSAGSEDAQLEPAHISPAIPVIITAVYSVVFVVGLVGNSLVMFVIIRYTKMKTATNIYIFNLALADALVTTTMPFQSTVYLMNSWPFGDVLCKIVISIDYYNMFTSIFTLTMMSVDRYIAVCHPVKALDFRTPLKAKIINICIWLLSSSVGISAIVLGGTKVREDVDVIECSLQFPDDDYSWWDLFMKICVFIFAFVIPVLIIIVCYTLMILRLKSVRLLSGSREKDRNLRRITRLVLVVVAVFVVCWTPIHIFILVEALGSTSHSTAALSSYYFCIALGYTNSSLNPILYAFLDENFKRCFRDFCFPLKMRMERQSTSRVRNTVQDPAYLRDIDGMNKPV
Chain of Mu-type opioid receptor (Rattus norvegicus, UniProt P33535) (P33535 whole entry): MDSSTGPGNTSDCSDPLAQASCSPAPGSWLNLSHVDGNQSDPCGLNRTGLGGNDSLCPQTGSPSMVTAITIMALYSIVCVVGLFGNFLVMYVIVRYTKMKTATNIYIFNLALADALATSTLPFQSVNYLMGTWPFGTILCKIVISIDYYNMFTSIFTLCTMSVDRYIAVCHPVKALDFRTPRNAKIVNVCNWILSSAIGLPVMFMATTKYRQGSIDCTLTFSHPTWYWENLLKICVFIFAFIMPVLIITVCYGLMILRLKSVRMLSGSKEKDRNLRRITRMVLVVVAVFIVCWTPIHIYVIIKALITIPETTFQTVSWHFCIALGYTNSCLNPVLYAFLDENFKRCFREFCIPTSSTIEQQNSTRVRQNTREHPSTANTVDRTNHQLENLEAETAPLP
T2 sequence (Q5BJF2 whole entry): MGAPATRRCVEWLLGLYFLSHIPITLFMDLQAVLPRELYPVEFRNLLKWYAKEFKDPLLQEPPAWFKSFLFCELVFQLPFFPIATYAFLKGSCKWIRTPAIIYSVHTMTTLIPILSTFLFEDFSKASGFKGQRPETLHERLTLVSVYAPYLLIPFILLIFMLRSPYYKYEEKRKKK
T4 sequence (P35372 whole entry): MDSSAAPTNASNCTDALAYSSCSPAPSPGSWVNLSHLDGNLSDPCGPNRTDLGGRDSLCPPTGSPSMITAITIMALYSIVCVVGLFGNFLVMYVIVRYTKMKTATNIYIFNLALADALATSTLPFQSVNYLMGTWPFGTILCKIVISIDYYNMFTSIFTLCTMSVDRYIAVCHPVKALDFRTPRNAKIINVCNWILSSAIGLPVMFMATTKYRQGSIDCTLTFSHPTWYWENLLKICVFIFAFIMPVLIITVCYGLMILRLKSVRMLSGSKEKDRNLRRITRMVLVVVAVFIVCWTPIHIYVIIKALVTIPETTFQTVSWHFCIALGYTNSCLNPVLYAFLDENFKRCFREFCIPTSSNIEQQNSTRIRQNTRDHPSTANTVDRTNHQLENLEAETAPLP
Chain of Delta-type opioid receptor (P41143 whole entry): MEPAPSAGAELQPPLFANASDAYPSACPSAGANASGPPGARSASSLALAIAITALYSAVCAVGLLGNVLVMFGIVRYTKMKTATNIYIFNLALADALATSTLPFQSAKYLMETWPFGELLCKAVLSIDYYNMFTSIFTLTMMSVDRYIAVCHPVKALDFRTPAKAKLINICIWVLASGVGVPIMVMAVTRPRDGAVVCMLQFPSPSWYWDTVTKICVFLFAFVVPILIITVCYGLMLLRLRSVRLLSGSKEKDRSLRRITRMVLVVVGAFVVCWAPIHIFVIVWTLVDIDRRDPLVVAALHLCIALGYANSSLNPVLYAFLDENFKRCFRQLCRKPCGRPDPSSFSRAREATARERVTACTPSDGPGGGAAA
T3 sequence (Q99720 whole entry): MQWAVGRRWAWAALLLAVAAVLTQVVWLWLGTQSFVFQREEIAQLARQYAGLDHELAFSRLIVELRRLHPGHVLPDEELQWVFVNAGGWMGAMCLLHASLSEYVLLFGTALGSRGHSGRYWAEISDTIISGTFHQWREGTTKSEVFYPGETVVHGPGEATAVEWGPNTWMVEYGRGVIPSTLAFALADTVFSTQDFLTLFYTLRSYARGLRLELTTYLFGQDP
T1 sequence (Q60492 whole entry): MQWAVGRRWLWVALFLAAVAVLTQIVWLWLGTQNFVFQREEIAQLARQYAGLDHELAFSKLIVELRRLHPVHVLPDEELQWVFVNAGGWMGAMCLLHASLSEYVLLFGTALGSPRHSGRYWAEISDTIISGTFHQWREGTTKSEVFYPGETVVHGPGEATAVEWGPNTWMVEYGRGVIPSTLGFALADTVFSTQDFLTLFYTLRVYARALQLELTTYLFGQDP
Chain of Glutathione hydrolase 1 proenzyme (P19440 1-380 limits assumed): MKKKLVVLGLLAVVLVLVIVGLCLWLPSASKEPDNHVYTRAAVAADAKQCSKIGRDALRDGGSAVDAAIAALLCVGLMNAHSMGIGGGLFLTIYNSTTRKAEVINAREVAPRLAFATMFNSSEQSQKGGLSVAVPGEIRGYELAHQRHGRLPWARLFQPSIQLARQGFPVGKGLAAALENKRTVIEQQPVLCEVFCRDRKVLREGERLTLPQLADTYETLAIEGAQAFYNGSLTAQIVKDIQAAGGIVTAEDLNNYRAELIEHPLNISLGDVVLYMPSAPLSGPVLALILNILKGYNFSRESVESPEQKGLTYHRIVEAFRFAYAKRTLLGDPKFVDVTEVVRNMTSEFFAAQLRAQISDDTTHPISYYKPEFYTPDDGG
Chain of Glutathione hydrolase 1 proenzyme (P19440 381-569 limits assumed): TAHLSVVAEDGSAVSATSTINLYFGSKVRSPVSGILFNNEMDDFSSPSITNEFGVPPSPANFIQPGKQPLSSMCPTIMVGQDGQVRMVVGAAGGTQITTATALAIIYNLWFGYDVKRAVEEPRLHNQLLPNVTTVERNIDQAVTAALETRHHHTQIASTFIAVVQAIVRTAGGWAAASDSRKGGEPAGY

C[C@@H]1[C@@H]2Cc3ccc(O)cc3[C@]1(C)CCN2Cc1ccc(F)cc1
Ki [1]: 0.00145 µM

C[C@@H]1[C@@H]2Cc3ccc(O)cc3[C@]1(C)CCN2CCN1CCCCC1
Ki [2]: 0.114 µM | Ki [3]: 0.0096 µM | Ki (Mu-type opioid receptor [4]): 12 µM | ED50 [5]: 0.88 mg/kg

C=CCCN1CC[C@]2(C)c3cc(O)ccc3C[C@@H]1[C@@H]2C
Ki [6]: 0.62 µM

C[C@@H]1[C@@H]2Cc3ccc(O)cc3[C@]1(C)CCN2CCN1CCCCCC1
Ki [2]: 0.151 µM | Ki [3]: 0.0201 µM | Ki (Mu-type opioid receptor [4]): 9.13 µM

C=CCN1CC[C@@]2(C)c3cc(O)ccc3C[C@H]1[C@H]2C
Ki (Mu-type opioid receptor [7]): > 10 µM | Ki [8]: 0.169 µM | Ki (Mu-type opioid receptor [9]): > 1 µM | Ki [10]: > 1 µM | Ki [11]: > 1 µM

COC(=O)[C@]1(c2ccccc2)C[C@@H]1CN1CC[C@@]2(C)c3cc(O)ccc3C[C@H]1[C@H]2C
Ki [8]: 0.0667 µM | Ki (Mu-type opioid receptor [9]): > 25 µM | Ki [10]: > 1 µM | Ki [11]: > 1 µM

CC(C)=CCN1CC[C@@]2(C)c3cc(F)ccc3C[C@H]1[C@H]2C
Ki [12]: 0.00148 µM | Ki [13]: 0.154 µM | Ratio Ki [14]: 104

CC(C)=CCN1CCN(c2ccc3c(c2)[C@H]2C[C@@H]3CCN2C(=O)OCc2ccccc2)CC1
Ki [15]: 0.023 µM

CC(C)=CCN1CC[C@@]2(C)c3cc(O)ccc3C[C@H]1[C@H]2C
Ki (Mu-type opioid receptor [4]): 2.37 µM

C[C@@H]1[C@@H]2Cc3ccc(O)cc3[C@]1(C)CCN2CCN1CCCC1
Ki [2]: 0.26 µM | Ki [3]: 0.0074 µM | Ki (Mu-type opioid receptor [4]): 3.8 µM

COC(=O)[C@@]1(c2ccccc2)C[C@H]1CN1CC[C@@]2(C)c3cc(O)ccc3C[C@H]1[C@H]2C
Ki [8]: 0.075 µM | Ki (Mu-type opioid receptor [9]): > 1 µM | Ki [10]: > 1 µM | Ki [11]: > 1 µM

C[C@@H]1[C@@H]2Cc3ccc(O)cc3[C@]1(C)CCN2CCNc1ccccc1
Ki [2]: 0.111 µM | Ki [3]: 0.0059 µM | Ki (Mu-type opioid receptor [4]): 0.0798 µM

CC[C@@H]1[C@@H]2CCN(Cc3ccccc3)[C@@H]1Cc1ccccc12
Ki [3]: 0.00336 µM | Ki [16]: 0.115 µM | Ratio Ki [17]: 34

C=CCCCN1CC[C@]2(C)c3cc(O)ccc3C[C@@H]1[C@@H]2C
Ki [6]: 0.18 µM

C[C@@H]1[C@@H]2Cc3ccccc3[C@]1(C)CCN2CCN1CCCC1
Ki [18]: 6.4 µM | Ki [8]: 0.034 µM | Ki [19]: 0.042 µM

C[C@@H]1[C@@H]2Cc3ccc(O)cc3[C@]1(C)CCN2CCN(C)c1ccccc1
Ki [2]: 0.124 µM | Ki [3]: 0.0056 µM | Ki (Mu-type opioid receptor [4]): 0.0288 µM

CO[C@H](C)CN1CC[C@@]2(C)c3ccc(O)cc3C[C@@H]1C2(C)C
Ki [20]: 0.0045 µM | LD50 [21]: 0.4 mg/kg | half-life [22]: 4 h

C[C@@H]1[C@@H]2Cc3ccccc3[C@]1(C)CCN2CCN(C)c1ccccc1
Ki [18]: > 10 µM | Ki [8]: 0.091 µM | Ki [19]: 0.157 µM

C[C@@H]1[C@@H]2CCN(Cc3ccccc3)[C@@H]1Cc1ccccc12
Ki [3]: 0.00096 µM | Ki [16]: 0.131 µM | Ratio Ki [17]: 136

COC(=O)C1(c2ccccc2)CC1CN1CC[C@@]2(C)c3cc(O)ccc3C[C@H]1[C@H]2C (mixture of isomers)
Ki [8]: 1.38 µM | Ki (Mu-type opioid receptor [9]): > 1 µM | Ki [10]: > 1 µM | Ki [11]: > 1 µM

CC(C)[C@@H]1[C@@H]2CCN(Cc3ccccc3)[C@@H]1Cc1ccccc12
Ki [3]: 0.0317 µM | Ki [16]: 0.133 µM | Ratio Ki [17]: 4

C[C@@H]1[C@@H]2Cc3ccc(N)cc3[C@]1(C)CCN2Cc1ccccc1
Ki [12]: 0.00147 µM | Ki [13]: 0.832 µM | Ratio Ki [14]: 570

C[C@@H]1[C@@H]2Cc3ccc(O)c(Cl)c3[C@]1(C)CCN2Cc1ccccc1
Ki [23]: 0.00172 µM | Ki [24]: 0.764 µM | Ratio Ki [25]: 440

CO[C@@H](C)CN1CC[C@@]2(C)c3cccc(O)c3C[C@@H]1C2(C)C
Ki [26]: 0.789 µM | IC50 [27]: 0.039 µM | ED50 (Mus musculus [28]): 1 mg/kg

C[C@@H](CN1CC[C@@]2(C)c3cccc(O)c3C[C@@H]1C2(C)C)OCc1ccccc1 [CROBENETINE]
Ki [26]: 0.043 µM | IC50 [27]: 0.322 µM | ED50 (Mus musculus [29]): 6.1 mg/kg

COC(=O)[C@]1(c2ccc(Cl)cc2)C[C@@H]1CN1CC[C@]2(C)c3cc(O)ccc3C[C@@H]1[C@@H]2C
Ki [8]: 1.05 µM | Ki (Mu-type opioid receptor [9]): > 25 µM | Ki [10]: > 25 µM | Ki [11]: 0.00041 µM

C[C@@H]1[C@@H]2Cc3ccccc3[C@]1(C)CCN2CCN1CCCCC1
Ki [18]: > 10 µM | Ki [8]: 0.02 µM | Ki [19]: 0.13 µM

CC(C)=CCN1CC[C@@]2(C)c3c(ccc(O)c3Cl)C[C@H]1[C@H]2C
Ki [23]: 0.00262 µM | Ki [24]: 4.96 µM

C[C@@H]1[C@@H]2Cc3ccccc3[C@]1(C)CCN2CCNc1ccccc1
Ki [18]: 6.5 µM | Ki [8]: 0.021 µM | Ki [19]: 0.144 µM

COC(=O)[C@]1(c2ccccc2)C[C@@H]1CN1CC[C@]2(C)c3cc(O)ccc3C[C@@H]1[C@@H]2C
Ki (Mu-type opioid receptor [9]): > 25 µM | Ki [10]: > 25 µM | Ki [11]: 0.24 µM

C[C@@H]1[C@@H]2Cc3ccc(N(C)C)cc3[C@]1(C)CCN2Cc1ccccc1
Ki [12]: 0.00175 µM | Ki [13]: 0.258 µM | Ratio Ki [14]: 150

C[C@@H]1[C@@H]2Cc3ccc(O)cc3[C@]1(C)CCN2CCN1CCOCC1
Ki [2]: 0.3 µM | Ki [3]: 0.0134 µM | Ki (Mu-type opioid receptor [4]): 8.17 µM | ED50 [5]: 0.82 mg/kg

C[C@@H]1[C@@H]2Cc3ccc(O)c(Br)c3[C@]1(C)CCN2Cc1ccccc1
Ki [23]: 0.00175 µM | Ki [24]: 0.346 µM | Ratio Ki [25]: 200

C[C@@H]1[C@@H]2Cc3ccc(O)cc3[C@]1(C)CCN2Cc1ccccc1F
Ki [1]: 0.00097 µM

C[C@@H]1[C@@H]2Cc3ccc(O)cc3[C@]1(C)CCN2Cc1ccccc1
Ki [1]: 0.00067 µM | Ki (Mu-type opioid receptor [7]): 1.61 µM | Ratio Ki [30]: 2400 | Ki [31]: 1.71 µM | Ratio Ki [32]: 2600

C/C=C/CN1CCN(c2ccc3c(c2)[C@H]2C[C@@H]3CCN2C(=O)OCc2ccccc2)CC1
Ki [15]: 0.016 µM

C[C@@H]1[C@@H]2Cc3cc(I)c(O)cc3[C@]1(C)CCN2Cc1ccccc1
Ki [23]: 0.231 µM | Ki [24]: 0.597 µM

C=CCN1CC[C@]2(C)c3cc(O)ccc3C[C@@H]1[C@@H]2C
Ki [6]: 3.2 µM

CC(C)=CCN1CC[C@@]2(C)c3c(ccc(O)c3Br)C[C@H]1[C@H]2C
Ki [23]: 0.00249 µM | Ki [24]: 0.283 µM

C=CCCCCN1CC[C@]2(C)c3cc(O)ccc3C[C@@H]1[C@@H]2C
Ki [6]: 0.08 µM
